Values of other authors in PMC2898477, “High-quality crystals of human haematopoietic prostaglandin D synthase with novel inhibitors” (2010).

Target: T1, haematopoietic prostaglandin D synthase (H-PGDS) (Homo sapiens, UniProt O60760)
T1 construct: gene HPGDS
Assay: co-crystallization and X-ray diffraction of the complex ([…] Å, P1); IC50 cited from Aritake et al. […]
Assay type: biochemical

T1 sequence (O60760 whole entry): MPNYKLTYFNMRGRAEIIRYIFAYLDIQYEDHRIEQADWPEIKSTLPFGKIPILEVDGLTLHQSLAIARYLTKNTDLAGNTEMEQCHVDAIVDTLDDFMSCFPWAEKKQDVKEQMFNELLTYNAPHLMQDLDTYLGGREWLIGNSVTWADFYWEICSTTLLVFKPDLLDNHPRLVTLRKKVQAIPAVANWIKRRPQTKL

IC50: 5.9 µM
SMILES: c1ccc(C(OC2CCN(CCCc3nnn[nH]3)CC2)c2ccccc2)cc1 [HQL-79, 4-benzhydryloxy-1-[3-(1H-tetrazol-5-yl)-propyl]-piperidine]
